# Results taken from patent publication US7807381B2, “Methods for assessing CDK5 activation and function” (The Board of Regents of the University of Texas System, priority 2007, dated 2010).
# Assays:
# Cdk5 sites = assay: Quantitative immunoblot of Cdk5-site phosphorylation in acute striatal slices incubated with NMDA; format: cell-based; details: NMDA at doses and times indicated, n=3-12
# Protocol: (§1) FIGS. 5A-B—NMDA receptor activation inhibits Cdk5 and the cytoplasmic domain is a Cdk5 inhibitor. (FIG. 5A) Reduction in phosphorylation of three Cdk5 sites by NMDA. Quantitative immunoblot analyses is shown of acute striatal slices incubated with NMDA for the doses and times indicated, n=3-12. *p<0.05; **p<0.01 vs. control, one-way ANOVA with Dunnett's multiple comparison test. (FIG. 5B) Inhibition of Cdk5-dependent phosphorylation of inhibitor-1 by NR2B as assessed by time-course (top), dose-response (middle), and Line-Weaver Burke (bottom) analyses of in vitro phosphorylation reactions conducted in the presence of the indicated inhibitors or control proteins.
# To determine if these observations were related, the inventors conducted in vitro phosphorylation reactions with Cdk5 and a test substrate, protein phosphatase inhibitor-1. […] Kinetic analysis confirmed that the NR2B receptor cytoplasmic domain functions as a potent and selective inhibitor of Cdk5 (IC50˜4 μM) and indicated a noncompetitive inhibition mechanism. […] These new data further confirm that NR2B can block Cdk5 activity, and further, that these interactions may be targeted for disruption so that Cdk5 may be uncoupled from NMDA receptors.
# Cdk5 = Cdk5 (Homo sapiens, UniProt Q00535); assay: in vitro phosphorylation reactions with Cdk5 and test substrate protein phosphatase inhibitor-1; format: biochemical; details: preliminary data
# Sequence of Cdk5 (Q00535 whole entry, species assumed): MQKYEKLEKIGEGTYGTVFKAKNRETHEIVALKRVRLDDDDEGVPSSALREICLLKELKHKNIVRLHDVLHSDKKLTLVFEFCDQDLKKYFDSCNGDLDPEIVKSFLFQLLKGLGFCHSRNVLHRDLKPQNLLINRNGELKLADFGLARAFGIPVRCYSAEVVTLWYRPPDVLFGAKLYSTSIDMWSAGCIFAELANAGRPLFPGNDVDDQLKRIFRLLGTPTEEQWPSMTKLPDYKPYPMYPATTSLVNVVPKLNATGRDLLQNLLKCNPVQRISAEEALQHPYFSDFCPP
# Protocol: as §1
# To determine if these observations were related, the inventors conducted in vitro phosphorylation reactions with Cdk5 and a test substrate, protein phosphatase inhibitor-1. […] Kinetic analysis confirmed that the NR2B receptor cytoplasmic domain functions as a potent and selective inhibitor of Cdk5 (IC50˜4 μM) and indicated a noncompetitive inhibition mechanism. […]
# Cdk5 phosphorylation activity assays may generally comprise ^32P-incoporation into substrates as determined by phosphorimager analysis. Alternatively, phosphorylation may be detected by either Western blot or ELISA using a control Cdk5 substrate and a phosphorylation state-specific antibody to a Cdk5 phosphorylation site on the substrate. […]
inhibition of Cdk5 (qualitative) (Cdk5),Compound,phosphorylation of three Cdk5 sites (Cdk5 sites)
–,CN[C@H](CC(=O)O)C(=O)O [NMDA],Reduction
effective inhibitor,"peptide encompassing amino acid residues 1101-1130 of NR2B: a peptide encompassing amino acid residues 1101-1130 of NR2B (EFDEIELAYRRRPPRSPDHKRYFRDKEGLR; UniProt Q13224 1101-1130, looked up, fragment)",–
